Measurements: patent publication US12258327B2, “5-membered heteroaryl-containing aminopyridine compounds as EGFR inhibitors” (YUHAN CORPORATION, priority 2021, dated 2025)
Where two headings read alike, the source gives them in different places.

How the values were obtained:
[1] = molecular target: EGFR del19/T790M/C797S (Homo sapiens, UniProt P00533, C797S/DEL746-750/T790M); experiment: Biochemical EGFR kinase assay (Lance Ultra TR-FRET), triple mutant del19/T790M/C797S
In short: (§1)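 Kinase activity is measured by TR-FRET phosphopeptide detection. Compounds span 0.003 μM to 10 μM; the 1 h reaction at room temperature is quenched with EDTA, then labelled antibody (2 nM) is incubated 60 min before reading.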

[2] = molecular target: EGFR wildtype (WT) (Homo sapiens, UniProt P00533); experiment: Biochemical EGFR kinase assay (Lance Ultra TR-FRET), wildtype
In short: as §1

[3] = molecular target: EGFR del19/C797S (Homo sapiens, UniProt P00533, C797S/DEL746-750); experiment: Biochemical EGFR kinase assay (Lance Ultra TR-FRET), double mutant del19/C797S
In short: as §1

[4] = molecular target: EGFR L858R/T790M/C797S (Homo sapiens, UniProt P00533, C797S/L858R/T790M); experiment: Biochemical EGFR kinase assay (Lance Ultra TR-FRET), triple mutant L858R/T790M/C797S
In short: as §1

[5] = molecular target: EGFR L858R/C797S (Homo sapiens, UniProt P00533, C797S/L858R); experiment: Biochemical EGFR kinase assay (Lance Ultra TR-FRET), double mutant L858R/C797S
In short: as §1

[6] = Km ATP, read-out: IC50 del19/T790M/C797S (nM) Km ATP
[7] = Km ATP, read-out: IC50 WT (nM) Km ATP
[8] = Km ATP, read-out: IC50 del19/C797S (nM) Km ATP
[9] = Km ATP, read-out: IC50 L858R/T790M/C797S (nM) Km ATP
[10] = Km ATP, read-out: IC50 L858R/C797S (nM) Km ATP
[11] = IC50 del19/T790M/C797S (nM) 100 μM ATP, 100 μM ATP
[12] = IC50 WT (nM) 100 μM ATP, 100 μM ATP
[13] = IC50 del19/C797S (nM) 100 μM ATP, 100 μM ATP
[14] = IC50 L858R/T790M/C797S (nM) 100 μM ATP, 100 μM ATP
[15] = IC50 L858R/C797S (nM) 100 μM ATP, 100 μM ATP

Chain of EGFR L858R/T790M/C797S (P00533 25-1210 T790M/C797S/L858R): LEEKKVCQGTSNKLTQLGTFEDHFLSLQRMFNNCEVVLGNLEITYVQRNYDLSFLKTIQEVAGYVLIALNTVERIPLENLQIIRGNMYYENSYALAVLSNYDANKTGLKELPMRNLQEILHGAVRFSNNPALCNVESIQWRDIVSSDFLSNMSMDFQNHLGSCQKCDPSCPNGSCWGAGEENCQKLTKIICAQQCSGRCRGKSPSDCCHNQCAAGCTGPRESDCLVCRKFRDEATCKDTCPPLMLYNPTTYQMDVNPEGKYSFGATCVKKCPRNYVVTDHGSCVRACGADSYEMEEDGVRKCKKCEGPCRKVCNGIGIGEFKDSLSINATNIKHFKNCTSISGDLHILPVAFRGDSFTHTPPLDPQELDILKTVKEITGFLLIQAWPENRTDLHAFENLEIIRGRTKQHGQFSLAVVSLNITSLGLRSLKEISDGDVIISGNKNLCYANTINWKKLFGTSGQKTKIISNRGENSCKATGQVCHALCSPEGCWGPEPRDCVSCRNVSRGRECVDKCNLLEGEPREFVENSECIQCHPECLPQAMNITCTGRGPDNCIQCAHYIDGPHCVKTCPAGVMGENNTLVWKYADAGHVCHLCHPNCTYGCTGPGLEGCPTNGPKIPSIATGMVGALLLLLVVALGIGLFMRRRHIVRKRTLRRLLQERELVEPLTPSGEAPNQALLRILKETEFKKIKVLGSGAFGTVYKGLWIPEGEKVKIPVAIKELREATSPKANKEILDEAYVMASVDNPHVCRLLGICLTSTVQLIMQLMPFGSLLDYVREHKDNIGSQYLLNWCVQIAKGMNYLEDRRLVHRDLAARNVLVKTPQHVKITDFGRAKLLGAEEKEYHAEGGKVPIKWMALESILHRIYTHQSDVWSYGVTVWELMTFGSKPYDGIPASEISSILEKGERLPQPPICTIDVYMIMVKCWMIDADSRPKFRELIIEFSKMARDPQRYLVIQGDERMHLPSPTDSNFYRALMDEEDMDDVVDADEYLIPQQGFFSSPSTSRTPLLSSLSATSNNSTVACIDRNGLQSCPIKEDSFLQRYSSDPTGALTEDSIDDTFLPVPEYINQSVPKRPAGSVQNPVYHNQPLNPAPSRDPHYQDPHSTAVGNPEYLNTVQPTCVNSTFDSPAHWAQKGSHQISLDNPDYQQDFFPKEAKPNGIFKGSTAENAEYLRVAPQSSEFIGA
Chain of EGFR L858R/C797S (P00533 25-1210 C797S/L858R): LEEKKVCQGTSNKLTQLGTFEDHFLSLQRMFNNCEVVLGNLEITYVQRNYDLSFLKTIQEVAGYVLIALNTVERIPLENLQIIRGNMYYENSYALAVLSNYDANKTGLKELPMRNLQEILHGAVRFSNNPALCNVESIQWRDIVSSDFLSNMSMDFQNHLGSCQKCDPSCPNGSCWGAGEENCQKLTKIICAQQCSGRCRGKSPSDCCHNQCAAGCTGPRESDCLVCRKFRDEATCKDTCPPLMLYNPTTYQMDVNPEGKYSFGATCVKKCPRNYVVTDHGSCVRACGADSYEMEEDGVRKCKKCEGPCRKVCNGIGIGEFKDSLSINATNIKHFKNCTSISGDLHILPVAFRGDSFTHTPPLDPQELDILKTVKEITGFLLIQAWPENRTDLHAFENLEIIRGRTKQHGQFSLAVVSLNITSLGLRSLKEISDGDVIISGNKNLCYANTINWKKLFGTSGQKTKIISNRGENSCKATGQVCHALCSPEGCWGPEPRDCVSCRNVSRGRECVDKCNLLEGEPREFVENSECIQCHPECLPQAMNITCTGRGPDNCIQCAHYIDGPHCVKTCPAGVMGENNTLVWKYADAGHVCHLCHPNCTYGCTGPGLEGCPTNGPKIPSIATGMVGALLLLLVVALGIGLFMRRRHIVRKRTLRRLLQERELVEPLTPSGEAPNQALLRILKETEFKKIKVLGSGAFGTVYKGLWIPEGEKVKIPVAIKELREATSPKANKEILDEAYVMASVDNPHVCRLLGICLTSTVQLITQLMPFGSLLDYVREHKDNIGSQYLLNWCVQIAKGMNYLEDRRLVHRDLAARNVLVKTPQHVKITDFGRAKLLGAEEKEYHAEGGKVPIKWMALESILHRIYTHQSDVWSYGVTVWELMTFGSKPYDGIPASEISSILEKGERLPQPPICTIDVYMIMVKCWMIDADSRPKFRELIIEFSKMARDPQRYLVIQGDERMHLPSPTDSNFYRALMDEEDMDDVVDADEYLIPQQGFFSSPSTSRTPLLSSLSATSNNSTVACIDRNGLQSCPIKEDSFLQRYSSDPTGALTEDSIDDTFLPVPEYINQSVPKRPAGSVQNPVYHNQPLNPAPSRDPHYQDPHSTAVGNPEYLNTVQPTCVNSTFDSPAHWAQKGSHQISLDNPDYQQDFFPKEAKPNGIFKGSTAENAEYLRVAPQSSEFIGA
Chain of EGFR del19/C797S (P00533 with tags, fused parts or gaps DEL746-750/C797S): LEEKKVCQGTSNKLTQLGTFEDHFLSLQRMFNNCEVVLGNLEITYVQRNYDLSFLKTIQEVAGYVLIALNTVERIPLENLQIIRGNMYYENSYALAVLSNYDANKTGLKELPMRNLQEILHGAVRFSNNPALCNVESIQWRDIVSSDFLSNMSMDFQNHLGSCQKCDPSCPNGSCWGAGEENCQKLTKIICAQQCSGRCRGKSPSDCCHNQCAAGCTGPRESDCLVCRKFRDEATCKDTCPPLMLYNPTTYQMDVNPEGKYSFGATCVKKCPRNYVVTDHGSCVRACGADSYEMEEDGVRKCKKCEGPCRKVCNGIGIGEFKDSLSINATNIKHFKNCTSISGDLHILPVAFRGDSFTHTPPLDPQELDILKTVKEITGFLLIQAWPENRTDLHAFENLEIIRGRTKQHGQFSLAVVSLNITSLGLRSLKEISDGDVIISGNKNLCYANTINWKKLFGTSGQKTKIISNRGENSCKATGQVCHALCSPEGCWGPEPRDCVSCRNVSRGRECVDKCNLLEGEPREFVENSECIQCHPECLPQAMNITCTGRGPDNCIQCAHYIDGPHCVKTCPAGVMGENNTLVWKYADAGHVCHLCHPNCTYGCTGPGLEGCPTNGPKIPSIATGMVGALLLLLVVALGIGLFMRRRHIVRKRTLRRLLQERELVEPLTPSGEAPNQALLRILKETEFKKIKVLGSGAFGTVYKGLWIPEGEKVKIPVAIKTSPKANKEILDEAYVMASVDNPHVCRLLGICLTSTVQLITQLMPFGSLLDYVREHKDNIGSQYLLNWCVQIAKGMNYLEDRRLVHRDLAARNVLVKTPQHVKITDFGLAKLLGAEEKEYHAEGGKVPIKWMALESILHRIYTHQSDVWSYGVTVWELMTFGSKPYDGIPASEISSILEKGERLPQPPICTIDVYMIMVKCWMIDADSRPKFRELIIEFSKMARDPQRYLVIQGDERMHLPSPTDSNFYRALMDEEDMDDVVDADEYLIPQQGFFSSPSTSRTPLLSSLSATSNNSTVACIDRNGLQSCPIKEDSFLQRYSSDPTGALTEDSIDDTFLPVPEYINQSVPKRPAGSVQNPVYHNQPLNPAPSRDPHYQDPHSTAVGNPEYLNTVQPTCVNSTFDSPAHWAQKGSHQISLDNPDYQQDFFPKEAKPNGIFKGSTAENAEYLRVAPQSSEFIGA
Chain of EGFR del19/T790M/C797S (P00533 with tags, fused parts or gaps DEL746-750/T790M/C797S): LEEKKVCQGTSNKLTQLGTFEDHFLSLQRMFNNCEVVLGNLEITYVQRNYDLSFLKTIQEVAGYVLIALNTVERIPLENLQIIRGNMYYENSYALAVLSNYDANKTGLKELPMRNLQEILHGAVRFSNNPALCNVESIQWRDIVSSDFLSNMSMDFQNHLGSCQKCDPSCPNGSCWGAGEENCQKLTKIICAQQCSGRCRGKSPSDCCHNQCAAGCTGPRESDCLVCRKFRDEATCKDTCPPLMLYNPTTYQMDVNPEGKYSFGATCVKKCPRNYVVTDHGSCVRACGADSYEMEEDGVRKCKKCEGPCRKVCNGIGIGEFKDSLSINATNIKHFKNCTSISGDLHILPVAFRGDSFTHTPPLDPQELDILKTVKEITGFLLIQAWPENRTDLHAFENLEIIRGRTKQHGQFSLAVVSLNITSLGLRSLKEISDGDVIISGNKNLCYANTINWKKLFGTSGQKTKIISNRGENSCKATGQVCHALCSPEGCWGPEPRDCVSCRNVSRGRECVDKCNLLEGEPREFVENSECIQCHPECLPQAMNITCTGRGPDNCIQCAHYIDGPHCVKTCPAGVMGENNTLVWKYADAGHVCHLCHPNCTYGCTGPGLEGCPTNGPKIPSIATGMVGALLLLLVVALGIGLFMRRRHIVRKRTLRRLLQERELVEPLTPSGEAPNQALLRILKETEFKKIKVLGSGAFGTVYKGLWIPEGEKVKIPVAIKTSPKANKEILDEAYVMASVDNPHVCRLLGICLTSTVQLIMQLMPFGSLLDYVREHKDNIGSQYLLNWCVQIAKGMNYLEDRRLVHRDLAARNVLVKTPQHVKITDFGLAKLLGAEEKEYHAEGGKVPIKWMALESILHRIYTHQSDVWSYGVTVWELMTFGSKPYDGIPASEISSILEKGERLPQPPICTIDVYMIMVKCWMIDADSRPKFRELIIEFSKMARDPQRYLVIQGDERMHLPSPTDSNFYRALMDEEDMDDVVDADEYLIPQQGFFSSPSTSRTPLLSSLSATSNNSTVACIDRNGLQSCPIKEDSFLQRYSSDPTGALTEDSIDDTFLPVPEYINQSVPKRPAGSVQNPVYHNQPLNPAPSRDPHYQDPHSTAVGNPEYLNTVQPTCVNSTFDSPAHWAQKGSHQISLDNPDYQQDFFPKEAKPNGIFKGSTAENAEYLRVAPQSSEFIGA

Structure (SMILES) | IC50 [1, 6] | IC50 [2, 7] | IC50 [3, 8] | IC50 [4, 9] | IC50 [5, 10] | IC50 [1, 11] | IC50 [2, 12] | IC50 [3, 13] | IC50 [4, 14] | IC50 [5, 15]
CN(C)CCCn1ccc(-c2cnc(Nc3ccnc(-c4cnn(S(=O)(=O)C5CC5)c4)n3)cc2N[C@H]2CC[C@@](C)(O)CC2)n1 [Example 288, (1s,4s)-4-((2-((2-(1-(Cyclopropylsulfonyl)-1H-pyrazol-4-yl)pyrimidin-4-yl)amino)-5-(1-(3-(dimethylamino)propyl)-1H-pyrazol-3-yl)pyridin-4-yl)amino)-1-methylcyclohexan-1-ol] |  |  |  |  |  | 0.2 nM | 133 nM | 0.2 nM | 0.2 nM | 0.4 nM
C[C@]1(O)CC[C@@H](Nc2cc(Nc3ccnc(-c4cnn(S(=O)(=O)C5CC5)c4)n3)ncc2-c2ccn(C3COC3)n2)CC1 [Example 292, (1s,4s)-4-((2-((2-(1-(Cyclopropylsulfonyl)-1H-pyrazol-4-yl)pyrimidin-4-yl)amino)-5-(1-(oxetan-3-yl)-1H-pyrazol-3-yl)pyridin-4-yl)amino)-1-methylcyclohexan-1-ol] | 0.5 nM |  | 0.4 nM | 0.1 nM | 0.1 nM | 0.2 nM | 6970 nM | 0.8 nM | 0.2 nM | 6.6 nM
Cn1nc(-c2cnc(Nc3ccnc(-c4cnn(S(=O)(=O)C5CC5)c4)n3)cc2N[C@H]2CC[C@@](C)(O)CC2)cc1C(C)(C)O [Example 293, (1s,4s)-4-((2-((2-(1-(Cyclopropylsulfonyl)-1H-pyrazol-4-yl)pyrimidin-4-yl)amino)-5-(5-(2-hydroxypropan-2-yl)-1-methyl-1H-pyrazol-3-yl)pyridin-4-yl)amino)-1-methylcyclohexan-1-ol] | 0.4 nM | 0.6 nM | 0.8 nM | 0.2 nM | 0.3 nM | 0.6 nM | 183 nM | 0.9 nM | 0.4 nM | 
COCn1ccc(-c2cnc(Nc3ccnc(-c4cnn(S(=O)(=O)C5CC5)c4)n3)cc2N[C@H]2CC[C@@](C)(O)CC2)n1 [Example 294, (1s,4s)-4-((2-((2-(1-(Cyclopropylsulfonyl)-1H-pyrazol-4-yl)pyrimidin-4-yl)amino)-5-(1-(methoxymethyl)-1H-pyrazol-3-yl)pyridin-4-yl)amino)-1-methylcyclohexan-1-ol] | 0.4 nM | 0.9 nM | 1 nM | 0.2 nM | 0.1 nM |  |  |  |  | 
O=S(=O)(C1CC1)n1cc(-c2nccc(Nc3cc(N[C@H]4CC[C@@H](CO)CC4)c(-c4ccn(C5CC5)n4)cn3)n2)cn1 [Example 297, ((1s,4s)-4-((5-(1-Cyclopropyl-1H-pyrazol-3-yl)-2-((2-(1-(cyclopropylsulfonyl)-1H-pyrazol-4-yl)pyrimidin-4-yl)amino)pyridin-4-yl)amino)cyclohexyl)methanol] | 0.1 nM | 1.6 nM | 0.5 nM | 0.1 nM | 0.3 nM | 0.2 nM | 582 nM | 0.7 nM | 0.5 nM | 3.9 nM
Cn1nc(-c2cnc(Nc3ccnc(-c4cnn(S(=O)(=O)C5CC5)c4)n3)cc2N[C@H]2CC[C@@H](C(C)(C)O)CC2)cc1C(C)(C)O [Example 298, 2-(3-(6-((2-(1-(Cyclopropylsulfonyl)-1H-pyrazol-4-yl)pyrimidin-4-yl)amino)-4-(((1s,4s)-4-(2-hydroxypropan-2-yl)cyclohexyl)amino)pyridin-3-yl)-1-methyl-1H-pyrazol-5-yl)propan-2-ol] |  | 1.6 nM | 1 nM | 0.3 nM | 1.1 nM | 1.8 nM | 504 nM | 0.8 nM | 1 nM | 1.7 nM
COCn1ccc(-c2cnc(Nc3ccnc(-c4cnn(S(=O)(=O)C5CC5)c4)n3)cc2N[C@H]2CC[C@@H](C(C)(C)O)CC2)n1 [Example 299, 2-((1s,4s)-4-((2-((2-(1-(Cyclopropylsulfonyl)-1H-pyrazol-4-yl)pyrimidin-4-yl)amino)-5-(1-(methoxymethyl)-1H-pyrazol-3-yl)pyridin-4-yl)amino)cyclohexyl)propan-2-ol] | 1.1 nM | 5 nM | 4.1 nM | 0.3 nM | 0.5 nM |  |  |  |  | 
CC(C)(O)[C@H]1CC[C@@H](Nc2cc(Nc3ccnc(-c4cnn(S(=O)(=O)C5CC5)c4)n3)ncc2-c2ccn(CCC(F)(F)F)n2)CC1 [Example 300, 2-((1s,4s)-4-((2-((2-(1-(Cyclopropylsulfonyl)-1H-pyrazol-4-yl)pyrimidin-4-yl)amino)-5-(1-(3,3,3-trifluoropropyl)-1H-pyrazol-3-yl)pyridin-4-yl)amino)cyclohexyl)propan-2-ol] | 1.3 nM | 44.8 nM | 32.6 nM | 0.8 nM | 0.5 nM |  |  |  |  | 
CN(C)CCCn1ccc(-c2cnc(Nc3ccnc(-c4cnn(S(=O)(=O)C5CC5)c4)n3)cc2N[C@H]2CC[C@@H](NCCF)CC2)n1 [Example 301, N^2-(2-(1-(Cyclopropylsulfonyl)-1H-pyrazol-4-yl)pyrimidin-4-yl)-5-(1-(3-(dimethylamino)propyl)-1H-pyrazol-3-yl)-N^4-((1s,4s)-4-((2-fluoroethyl)amino)cyclohexyl)pyridine-2,4-diamine] |  |  |  |  |  | 0.1 nM | 1370 nM | 0.4 nM | 0.1 nM | 3.5 nM
COCn1ccc(-c2cnc(Nc3ccnc(-c4cnn(S(=O)(=O)C5CC5)c4)n3)cc2NC(C)C)n1 [Example 303, N^2-(2-(1-(Cyclopropylsulfonyl)-1H-pyrazol-4-yl)pyrimidin-4-yl)-N^4-isopropyl-5-(1-(methoxymethyl)-1H-pyrazol-3-yl)pyridine-2,4-diamine] | 0.6 nM | 1.7 nM | 2.2 nM | 0.3 nM | 0.2 nM |  |  |  |  | 

Continued, values first:

IC50 [1, 6] | IC50 [2, 7] | IC50 [3, 8] | IC50 [4, 9] | IC50 [5, 10] | IC50 [1, 11] | IC50 [2, 12] | IC50 [3, 13] | IC50 [4, 14] | IC50 [5, 15] | Structure (SMILES)
0.2 nM | 0.3 nM | 0.3 nM | 0.1 nM | 0.1 nM |  |  |  |  |  | CN1CCC(n2ccc(-c3cnc(Nc4ccnc(-c5cnn(S(=O)(=O)C6CC6)c5)n4)cc3N[C@H]3CC[C@@](C)(O)CC3)n2)CC1 [Example 287, (1s,4s)-4-((2-((2-(1-(Cyclopropylsulfonyl)-1H-pyrazol-4-yl)pyrimidin-4-yl)amino)-5-(1-(1-methylpiperidin-4-yl)-1H-pyrazol-3-yl)pyridin-4-yl)amino)-1-methylcyclohexan-1-ol]
0.1 nM | 2 nM | 0.2 nM | 0.1 nM | 0.3 nM | 0.1 nM | 2500 nM | 0.5 nM | 0.2 nM | 3.4 nM | C[C@]1(O)CC[C@@H](Nc2cc(Nc3ccnc(-c4cnn(S(=O)(=O)C5CC5)c4)n3)ncc2-c2ccn(C3CC3)n2)CC1 [Example 290, (1s,4s)-4-((5-(1-Cyclopropyl-1H-pyrazol-3-yl)-2-((2-(1-(cyclopropylsulfonyl)-1H-pyrazol-4-yl)pyrimidin-4-yl)amino)pyridin-4-yl)amino)-1-methylcyclohexan-1-ol]
0.3 nM | 0.3 nM | 0.2 nM | 0.2 nM | 0.3 nM | 0.4 nM | 941 nM | 0.6 nM | 0.3 nM |  | Cc1cc(-c2cnc(Nc3ccnc(-c4cnn(S(=O)(=O)C5CC5)c4)n3)cc2N[C@H]2CC[C@@](C)(O)CC2)nn1C [Example 291, (1s,4s)-4-((2-((2-(1-(Cyclopropylsulfonyl)-1H-pyrazol-4-yl)pyrimidin-4-yl)amino)-5-(1,5-dimethyl-1H-pyrazol-3-yl)pyridin-4-yl)amino)-1-methylcyclohexan-1-ol]
0.1 nM | 0.3 nM | 0.1 nM | 0.1 nM | 0.1 nM | 0.2 nM | 48.8 nM | 0.3 nM | 0.1 nM | 0.5 nM | CN(C)CCCn1ccc(-c2cnc(Nc3ccnc(-c4cnn(S(=O)(=O)C5CC5)c4)n3)cc2N[C@H]2CC[C@@H](CO)CC2)n1 [Example 296, ((1s,4s)-4-((2-((2-(1-(Cyclopropylsulfonyl)-1H-pyrazol-4-yl)pyrimidin-4-yl)amino)-5-(1-(3-(dimethylamino)propyl)-1H-pyrazol-3-yl)pyridin-4-yl)amino)cyclohexyl)methanol]
0.3 nM | 0.2 nM | 0.2 nM | 0.1 nM | 0.1 nM | 0.4 nM | 38.9 nM | 0.3 nM | 0.2 nM | 0.2 nM | CN(C)C[C@H]1CC[C@@H](Nc2cc(Nc3ccnc(-c4cnn(S(=O)(=O)C5CC5)c4)n3)ncc2-c2cc(C(C)(C)O)n(C)n2)CC1 [Example 302, 2-(3-(6-((2-(1-(Cyclopropylsulfonyl)-1H-pyrazol-4-yl)pyrimidin-4-yl)amino)-4-(((1s,4s)-4-((dimethylamino)methyl)cyclohexyl)amino)pyridin-3-yl)-1-methyl-1H-pyrazol-5-yl)propan-2-ol]
